# Key:
# JM1 = experiment: Effective dose of compound that decreases antigen production in HIV-1 infected JM cells to 50% of control; format: functional; conditions: Homo sapiens, read-out: ED50 (the source's name)
# [1] = Toxic dose of compound which causes 50% cytotoxicity towards HIV-1 uninfected JM cells; format: toxicity, cell-based, JM1; conditions: human, read-out: TD50 (the source's name)
Structure (SMILES),EC50 (JM1) [µM],CC50 [1] [µM]
Cc1cn([C@H]2C[C@H](N=[N+]=[N-])[C@@H](CO)O2)c(=O)[nH]c1=O [ZIDOVUDINE],100,> 1000
COC(=O)CNP(=O)(OCC1OC(n2cc(C)c(=O)[nH]c2=O)CC1N=[N+]=[N-])Oc1ccccc1 (stereo not drawn),100,1000
COC(=O)C(C)NP(=O)(OCC1OC(n2cc(C)c(=O)[nH]c2=O)CC1N=[N+]=[N-])Oc1ccc(OC)cc1 (stereo not drawn),0.8,100
COC(=O)C(C)NP(=O)(OCC1OC(n2cc(C)c(=O)[nH]c2=O)CC1N=[N+]=[N-])Oc1ccc([N+](=O)[O-])cc1 (stereo not drawn),40,300
COC(=O)[C@H](C)NP(=O)(OC[C@H]1O[C@@H](n2cc(C)c(=O)[nH]c2=O)C[C@@H]1N=[N+]=[N-])Oc1ccccc1 (stereo partly drawn),0.8,500
COC(=O)C(CC(C)C)NP(=O)(OCC1OC(n2cc(C)c(=O)[nH]c2=O)CC1N=[N+]=[N-])Oc1ccccc1 (stereo not drawn),8,80

# More lines, main results first:
EC50 (JM1) [µM],Structure (SMILES),CC50 [1] [µM]
0.4,CCc1ccc(OP(=O)(NC(C)C(=O)OC)OCC2OC(n3cc(C)c(=O)[nH]c3=O)CC2N=[N+]=[N-])cc1 (stereo not drawn),40
1.6,COC(=O)C(Cc1ccccc1)NP(=O)(OCC1OC(n2cc(C)c(=O)[nH]c2=O)CC1N=[N+]=[N-])Oc1ccccc1 (stereo not drawn),100
0.32,COC(=O)C(C)NP(=O)(OCC1OC(n2cc(C)c(=O)[nH]c2=O)CC1N=[N+]=[N-])Oc1ccc(F)cc1 (stereo not drawn),> 200

# — ChEMBL document CHEMBL1151585, “Aryl phosphate derivates of AZT inhibit HIV replication in cells where the nucleoside is poorly active” (Bioorg Med Chem Lett, 1992)
